# Assay: solvent given as SMILES
structure (smiles),measurement,setting,value
CN(C)c1ccc(/C=C/C(=O)O)cc1,emission maximum,in C1CCCCC1,399 nm
same,emission maximum,in C1CCOC1,418 nm
same,emission maximum,in C1COCCO1,414 nm
same,emission maximum,in CC#N,445 nm
same,emission maximum,in CCCCO,439 nm
same,emission maximum,in CCCO,441 nm
same,emission maximum,in CCOC(C)=O,421 nm
same,emission maximum,in CO,453 nm
same,emission maximum,in Cc1ccccc1,413 nm
same,emission maximum,in O,453 nm
same,emission maximum,in c1ccccc1,416 nm
CN(C)CCN(Cc1c2ccccc2cc2ccccc12)c1ccc([N+](=O)[O-])cc1,emission maximum,in C1CCCCC1,411 nm
same,emission maximum,in C1CCOC1,414 nm
same,emission maximum,in CC#N,389 nm
same,emission maximum,in CC(C)=O,387 nm
same,emission maximum,in CCO,410 nm
same,emission maximum,in CN(C)C=O,389 nm
same,emission maximum,in CO,389 nm
same,emission maximum,in ClC(Cl)Cl,415 nm
COc1ccc(C#CC2=C3CCc4ccccc4C3=[O+][B-](F)(F)O2)cc1,emission maximum,in ClCCl,493 nm
COCCC1(CCOC)c2cc(-c3ccc(OC)cc3)ccc2-c2ccc(-c3ccc(OC)cc3)cc21,emission maximum,in C1CCCCC1,371 nm
Oc1ccccc1-c1nc2c(c3c1-c1ccccc1CC3)-c1ccccc1CC2,emission maximum,in ClCCl,413 nm
CCOC(=O)/C=C/C1=C(c2ccc(C)cc2)C2=Nc3c(-c4ccc(C)cc4)c(Br)c(-c4ccc(C)cc4)n3[B-](F)(F)[N+]2=C1c1ccc(C)cc1,emission maximum,in ClC(Cl)Cl,703 nm
O=C1CC(c2ccc(C(F)(F)F)cc2)c2c(c3ccccc3c3nc4ccccc4nc23)O1 (stereo not drawn),emission maximum,in ClC(Cl)Cl,433 nm
CCN(CC)c1ccc2c(c1)oc(=O)c1cnc3c(c(C)nn3-c3ccccc3)c12,emission maximum,in ClCCl,445 nm
c1ccc(-c2ccc(-c3ccc(-c4ccccc4)cc3)cc2)cc1,emission maximum,in C1CCOC1,368 nm
same,emission maximum,in C1COCCO1,369 nm
Nc1cccc2ncccc12,emission maximum,in CC#N,480 nm
same,emission maximum,in O,534 nm
COc1ccc(-c2nc(C)cc(-c3ccc(-n4c5ccccc5c5ccccc54)cc3)n2)cc1,emission maximum,in C1CCOC1,418 nm
same,emission maximum,in CN(C)C=O,453 nm
same,emission maximum,in Cc1ccccc1,390 nm
same,emission maximum,in ClC(Cl)Cl,421 nm
CC1=CC(/C=C/c2ccc(N(C)C)cc2)=[N+]2C1=C(c1ccc(I)cc1)c1c(C)cc(/C=C/c3ccc(N(C)C)cc3)n1[B-]2(F)F,emission maximum,in CC#N,768 nm
Cc1ccc2[nH]c(-c3ccc(-c4ccc(-c5ccc(-c6nc7cc(C)ccc7[nH]6)cc5)cc4)cc3)nc2c1,emission maximum,in CN(C)C=O,416 nm
O=P1(c2ccccc2)c2ccccc2-c2sc3ccccc3c21 (stereo not drawn),emission maximum,in C1CCCCC1,417 nm
same,emission maximum,in CC#N,427 nm
same,emission maximum,in CCO,434 nm
same,emission maximum,in ClCCl,428 nm
C#Cc1ccc(C#Cc2cnc(C#Cc3ccccc3)nc2)cc1,emission maximum,in C1CCCCC1,415 nm
Cc1cc(C)c(B2c3cc(C(C)(C)C)ccc3-c3c(-c4ccccc4)ccc4cc(C(C)(C)C)cc2c34)c(C)c1,emission maximum,in C1CCCCC1,470 nm
CCOC(=O)COc1ccc(C(c2c(C)[nH]c3ccccc23)c2c(C)[nH]c3ccccc23)cc1OC,emission maximum,in C1CCCCC1,329 nm
same,emission maximum,in CC#N,340 nm
same,emission maximum,in CO,345 nm
same,emission maximum,in O,350 nm
O=S(=O)(c1ccccc1)c1ccc(-c2ccc3c4ccc(-c5ccc(S(=O)(=O)c6ccccc6)cc5)cc4n(-c4ccccc4)c3c2)cc1,emission maximum,in CCCCCC,409 nm
same,emission maximum,in CN(C)C=O,437 nm
same,emission maximum,in CO,434 nm
same,emission maximum,in Cc1ccccc1,413 nm
same,emission maximum,in ClCCl,411 nm
N#Cc1ccc(Oc2ccc3c4c(cccc24)C(=O)N(CCO)C3=O)cc1,emission maximum,in ClC(Cl)Cl,413 nm
CCn1c2cc(-c3ccc(-c4cccs4)s3)ccc2c2ccc(-c3ccc(-c4cccs4)s3)cc21,emission maximum,in ClCCl,447 nm
CCN(CC)c1ccc2cc(-c3nc4c5ccccc5c5ccccc5c4n3-c3ccc(C(C)(C)C)cc3)c(=O)oc2c1,emission maximum,in ClCCl,492 nm
Cc1ccc(N(c2ccc(C)cc2)c2ccc(-c3ccc(-c4ccc(N(c5ccc(C)cc5)c5ccc(C)cc5)cc4)c4nsnc34)cc2)cc1,emission maximum,in Cc1ccccc1,628 nm
same,emission maximum,in ClCCl,609 nm
CCCCCCCCCCCCOc1cc2c3c(ccc4c5c(SCCCCCCCCCCCC)cc6c7c(ccc(c1c34)c75)C(=O)N(C1CCCCC1)C6=O)C(=O)N(C1CCCCC1)C2=O,emission maximum,in ClC(Cl)Cl,640 nm
COc1ccc(-c2c3cc4ccccc4cc3c(C#Cc3ccccc3)c3cc4ccccc4cc23)cc1,emission maximum,in ClCCl,697 nm
N#Cc1ccc(-c2cn3cc(-c4ccccc4)c[n+]3[n-]2)cc1,emission maximum,in ClCCl,506 nm
CC(=O)c1ccc(C#Cc2ccc3c(N(C)C)cc(-c4ccccc4)cc3c2)cc1,emission maximum,in ClCCl,577 nm
CCOc1cc2c(cc1/C=C/C(=C(C#N)C#N)c1ccccc1)c1ccccc1n2CC,emission maximum,in C1CCOC1,541 nm
same,emission maximum,in CC#N,569 nm
same,emission maximum,in CCO,575 nm
same,emission maximum,in CCOC(C)=O,537 nm
same,emission maximum,in CN(C)C=O,573 nm
same,emission maximum,in CS(C)=O,575 nm
same,emission maximum,in Cc1ccccc1,522 nm
same,emission maximum,in ClC(Cl)Cl,550 nm
same,emission maximum,in ClCCl,558 nm
COc1cc(C2=c3c(c4ccc(C(C)(C)C)cc4c4cc(C(C)(C)C)ccc34)=[N+]3C2=Nc2c(-c4cc(OC)c(OC)c(OC)c4)c4c5ccc(C(C)(C)C)cc5c5cc(C(C)(C)C)ccc5c4n2[B-]3(F)F)cc(OC)c1OC,emission maximum,in Cc1ccccc1,816 nm
CCCCCCCCCCCCOc1cc(C(=O)Nc2ccc(-c3ccc4c(c3)C(=O)c3ccccc3-4)cc2)cc(OCCCCCCCCCCCC)c1OCCCCCCCCCCCC,emission maximum,in C1CCOC1,529 nm
c1cc2ccc3ccc(OP4(Oc5ccc6ccc7cccc8ccc5c6c78)=NP(Oc5ccc6ccc7cccc8ccc5c6c78)(Oc5ccc6ccc7cccc8ccc5c6c78)=NP(Oc5ccc6ccc7cccc8ccc5c6c78)(Oc5ccc6ccc7cccc8ccc5c6c78)=N4)c4ccc(c1)c2c34,emission maximum,in ClCCl,459 nm
Cc1ccc2c(c1)n(C)c(-c1ccc(-c3ccc(-c4ccc(-c5n(C)c6cc(C)ccc6[n+]5C)cc4)cc3)cc1)[n+]2C,emission maximum,in O,397 nm
CCOC(=O)C1=C(C(=O)OCC)C2(c3ccccc3-c3ccccc32)[C@@H](c2ccc(Cl)cc2)C=C2c3cc(OC)c(OC)cc3CCN21,emission maximum,in ClCCl,445 nm
COc1ccc(-c2csc(/C(C#N)=C/c3c(Cl)cccc3Cl)n2)cc1,emission maximum,in CC#N,550 nm
O=C(O)C1=CC(=C/C=[N+]2/c3cc(O)c(C[C@@H]4O[C@H](CO)[C@@H](O)C(O)[C@H]4O)cc3C[C@H]2C(=O)O)C=C(C(=O)O)N1 (stereo partly drawn),emission maximum,in CO,588 nm
same,emission maximum,in O,620 nm
same,emission maximum,in OCCO,594 nm
same,emission maximum,in [2H]O[2H],620 nm
FC(F)(F)C(F)(F)C(F)(F)C1=NC2=C(Br)C=C3c4cc(Br)c5nc(C(F)(F)C(F)(F)C(F)(F)F)nc6c(Br)cc(c4c56)=C4C=C(Br)C(=N1)C2C34 (stereo not drawn),emission maximum,in C1CCOC1,486 nm
CN(C)c1ccc2c3c(c(=O)oc2c1)C=c1cc2c(cc1O3)=[N+](CCC(=O)O)CCC2,emission maximum,in CC#N,644 nm
same,emission maximum,in CO,640 nm
same,emission maximum,in ClCCl,638 nm
same,emission maximum,in O,641 nm
c1ccc(-n2c3ccccc3c3cc(C4(c5ccc6c(c5)c5ccccc5n6-c5ccccc5)c5cc(-c6ccc7ccc8cccc9ccc6c7c89)ccc5-c5ccc(-c6ccc7ccc8cccc9ccc6c7c89)cc54)ccc32)cc1,emission maximum,in ClCCl,423 nm
COc1ccc(-c2ccc3c(c2)c2cc(-c4ccc(OC)cc4)ccc2n3-c2ccc(C(=O)c3ccc4sc5ccccc5c4c3)cn2)cc1,emission maximum,in Cc1ccccc1,479.23 nm
same,emission maximum,in c1cc(-n2c3ccccc3c3ccccc32)cc(-n2c3ccccc3c3ccccc32)c1,484 nm
CC1=[N+]2C(=C(c3c4ccccc4cc4ccccc34)c3ccc(/C=C/C(C)(C)C)n3[B-]2(F)F)C=C1,emission maximum,in ClC(Cl)Cl,556 nm
CCCCCCOc1ccc(C#Cc2ccc(-c3ccc(-c4ccc(C#Cc5ccc(OCCCCCC)c(OCCCCCC)c5)s4)c4nsnc34)s2)cc1OCCCCCC,emission maximum,in C1CCCCC1,600 nm
same,emission maximum,in CCOC(C)=O,635 nm
same,emission maximum,in CN(C)C=O,666 nm
same,emission maximum,in COc1ccccc1,636 nm
same,emission maximum,in Cc1ccccc1,620 nm
same,emission maximum,in ClC(Cl)Cl,648 nm
same,emission maximum,in ClCCCl,650 nm
same,emission maximum,in ClCCl,649 nm
C(=C\c1c2ccccc2cc2ccccc12)/c1c2ccccc2cc2ccccc12,emission maximum,in C1CCOC1,650 nm
CSc1ccc(C#Cc2ccc(C#Cc3ccc(C#Cc4ccccc4C#N)cc3C#N)cc2C#N)cc1,emission maximum,in ClC(Cl)Cl,455 nm
c1ccc2c(c1)c1ccccc1c1ncncc21,emission maximum,in ClCCl,368 nm
c1ccc([B-]2(c3ccccc3)Oc3ccc4ccccc4c3-c3c4ccccc4nc[n+]32)cc1,emission maximum,in Cc1ccccc1,543 nm
CN(C)c1ccc(-c2nc3c(c4c2-c2ccc(C#N)cc2CC4)-c2ccc(C#N)cc2CC3)cc1,emission maximum,in C1CCOC1,500 nm
same,emission maximum,in CC#N,505 nm
same,emission maximum,in CCCCCC,444 nm
same,emission maximum,in CCOC(C)=O,489 nm
same,emission maximum,in CO,489 nm
same,emission maximum,in CS(C)=O,516 nm
same,emission maximum,in Cc1ccccc1,469 nm
same,emission maximum,in ClCCl,482 nm
COc1ccc(C#Cc2ncc(-c3ccccc3)o2)cc1OC,emission maximum,in ClCCl,390 nm
COC(=O)c1[nH]c(-c2ccc(Br)cc2)c2nnc3ccc(OC)cc3c12,emission maximum,in ClCCl,475 nm
CCOC(=O)C1=C(C(=O)OCC)C2(c3ccccc3-c3c(Br)cc(Br)cc32)C2(/C=C/c3ccc(Cl)cc3)c3cc(OC)c(OC)cc3CCN12 (stereo not drawn),emission maximum,in ClCCl,495 nm
COc1c2ccccc2c(OC)c2c(C#CC(C)(C)C)c3cc4ccccc4cc3c(C#CC(C)(C)C)c12,emission maximum,in ClCCl,682 nm
C(=C\c1cccnc1)/c1ccc(N(c2ccccc2)c2ccccc2)cc1,emission maximum,in CC#N,476 nm
same,emission maximum,in CCCCCC,403 nm
CC1(C)c2ccccc2N(c2ccc3c(c2)c2ccccc2c2nc4ccccc4nc32)c2ccccc21,emission maximum,in Cc1ccccc1,541 nm
same,emission maximum,in c1cc(-c2cccc(-n3c4ccccc4c4ccccc43)c2)cc(-n2c3ccccc3c3ccccc32)c1,549 nm
CCCCC(CC)CN1C(=O)C2=C(c3ccc(-c4ccc(C5=C6C(C)=CC(C)=[N+]6[B-](F)(F)n6c(C)cc(C)c65)cc4)s3)N(CC(CC)CCCC)C(=O)C2=C1c1ccc(-c2ccc(C3=C4C(C)=CC(C)=[N+]4[B-](F)(F)n4c(C)cc(C)c43)cc2)s1 (stereo not drawn),emission maximum,in Cc1ccccc1,637 nm
O=C(O)c1ccc(-c2nc(-c3ccccc3)c3c4ccccc4ccn23)cc1,emission maximum,in CC#N,473 nm
Cc1nc2cc3c4c(cccc4c2o1)C(=O)OC3=O,emission maximum,in CCO,412 nm
